The target in assay [1] is T1, MCR-C (C-terminal domain of malonyl-CoA reductase) (Chloroflexus aurantiacus, UniProt A9WIU3). In words: NADPH absorbance at […] nm, product inhibition. It is filed as biochemical.
For assay [2], the target named is T1, MCR-C (C-terminal domain of malonyl-CoA reductase). Put plainly: NADPH absorbance at […] nm, dead-end inhibition. It is filed as biochemical.

Turning to `CC(C)(COP(=O)(O)OP(=O)(O)OC[C@H]1O[C@@H](n2cnc3c(N)ncnc32)[C@H](O)[C@@H]1OP(=O)(O)O)[C@@H](O)C(=O)NCCC(=O)NCCS` [CoA], in assay [1], the inhibitory constant (Ki) (usually a dissociation constant, usually derived from enzyme kinetics or from competition with a known ligand) is 238 ± 14 µM. The same measure, in the same setting: with `NC(=O)c1ccc[n+]([C@@H]2O[C@H](COP(=O)(O)OP(=O)(O)OC[C@H]3O[C@@H](n4cnc5c(N)ncnc54)[C@H](OP(=O)(O)O)[C@@H]3O)[C@@H](O)[C@H]2O)c1` [NADP^+] the figure was 104 ± 15 µM. On to `O=CC(=O)O` [glyoxylic acid], for which, in assay [2], affinity was put at a Ki of 6 ± 0.8 µM.
